The nature of this data set: in vitro. To be noted: human, hela cells, % viability.

`COc1ccc(CCNS(=O)(=O)c2cc([N+](=O)[O-])ccc2C)cc1OC` [CBK267412]: the viability at 28.5 h, 10 µM amounted to 94.2%.

Consider `C/C=C/c1ccc(OCCCSc2nc(C)cc(O)n2)c(OC)c1` [CBK267413], for which the viability at 28.5 h, 10 µM stood at 93.5%.

`COc1ccc(CC(=O)Nc2ccc(-c3nnc(-c4ccccc4)o3)cc2)cc1OC` [CBK267414]: the viability at 28.5 h, 10 µM stood at 94.9%.

On to `O=C(Nc1ccc(O)cc1C(=O)O)c1ccc2c(c1)C(=O)N(Cc1ccco1)C2=O` [CBK267418], for which the viability at 28.5 h, 10 µM turned out to be 103%.

`Cc1ccc(NC(=O)CSc2nnc(C(O)c3ccccc3)n2-c2ccccc2)c(Br)c1` (stereo not shown) [CBK267421]: the viability at 28.5 h, 10 µM amounted to 89.8%.

On to `CN(CC(=O)Nc1ccc([N+](=O)[O-])cc1)S(=O)(=O)c1ccc2ccccc2c1` [CBK267422], for which the viability at 28.5 h, 10 µM is 92.7%.

Regarding `COc1ccc(CSCc2n[nH]c(=O)[nH]2)cc1[N+](=O)[O-]` [CBK267425], the viability at 28.5 h, 10 µM stood at 101%.

In the case of `Oc1n[nH]c(CSCc2ccccc2Cl)n1` [CBK267427], the viability at 28.5 h, 10 µM amounted to 87.6%.

On to `CC(Oc1ccccc1)C(=O)N1CCN(CCO)CC1` (stereo not shown) [CBK267428], for which the viability at 28.5 h, 10 µM came out at 98.6%.

`Cc1nn(C)c(C)c1NC(=O)CSc1nnc(-c2cccc(Br)c2)n1-c1ccccc1` [CBK267430]: the viability at 28.5 h, 10 µM turned out to be 103%.

Turning to `CC(Oc1ccc(C(C)(C)C)cc1)C(=O)Nc1nnc[nH]1` (stereo not shown) [CBK267431], the viability at 28.5 h, 10 µM stood at 94.8%.

As to `CN(CC(=O)Nc1ccccc1-c1ccccc1)S(=O)(=O)c1ccc2ccccc2c1` [CBK267432], the viability at 28.5 h, 10 µM was determined as 104%.

Take `O=C(O)CNC(=O)c1ccc(S(=O)(=O)N2CCCC2)cc1` [CBK267434]: the viability at 28.5 h, 10 µM was 87%.

Regarding `COc1cc(NC(=O)c2ccc3c(c2)C(=O)N(Cc2ccco2)C3=O)c(C(=O)O)cc1OC` [CBK267436], the viability at 28.5 h, 10 µM stood at 105%.

For `O=C(O)CNC(=O)c1ccc(S(=O)(=O)N2CCOCC2)cc1` [CBK267437], the viability at 28.5 h, 10 µM is 112%.

With `O=C1CC(N2CCC(c3nc4ccccc4s3)CC2)C(=O)N1Cc1ccccc1` (stereo not shown) [CBK267438], the viability at 28.5 h, 10 µM was 90%.

For the compound `COC(=O)c1ccccc1NC(=O)CSc1nnnn1C` [CBK267441], the viability at 28.5 h, 10 µM worked out at 90%.

As for `Cn1nnnc1SCC(=O)Nc1ccc(C(=O)O)cc1` [CBK267442], the viability at 28.5 h, 10 µM came out at 87.3%.

For the compound `CCOC(=O)CC(=O)CSc1nc(C)cc(-c2cccs2)c1C#N` [CBK267446], the viability at 28.5 h, 10 µM amounted to 86.6%.

For `N#Cc1c(C(F)(F)F)cc(-c2ccco2)nc1SCc1ccccn1` [CBK267450], the viability at 28.5 h, 10 µM is 88.5%.

Turning to `N#Cc1c(C(F)(F)F)cc(-c2ccncc2)nc1SCCN1CCCCCC1` [CBK267451], the viability at 28.5 h, 10 µM is 85.3%.

With `CC(Sc1nc(-c2cccnc2)ccc1C#N)C(=O)O` (stereo not shown) [CBK267452], the viability at 28.5 h, 10 µM is 90.7%.

Consider `CCc1[nH]nc2c1C1(CN3CCC1CC3)C(C#N)=C(N)O2` (stereo not shown) [CBK267454], for which the viability at 28.5 h, 10 µM was found to be 101%.

As for `N#Cc1sc2nc(C34CC5CC(CC(C5)C3)C4)ccc2c1N` [CBK267455], the viability at 28.5 h, 10 µM worked out at 93.8%.

Turning to `COc1cccc(CSC2=C(C#N)C(c3cccs3)C(C(=O)Nc3ccccc3)=C(C)N2)c1` (stereo not shown) [CBK267458], the viability at 28.5 h, 10 µM came to 83.2%.

Consider `CCOC(=O)CC(=O)CSc1nc(C)cc(-c2cccnc2)c1C#N` [CBK267460], for which the viability at 28.5 h, 10 µM came to 94%.

In the case of `COc1cc2c(cc1OC)CN(C(=O)CSc1nc3c(c(-c4cccs4)c1C#N)CN(C)CC3)CC2` [CBK267462], the viability at 28.5 h, 10 µM worked out at 91.3%.

As to `COc1cc2c(cc1OC)CN(C(=O)CSc1nc(-c3cccnc3)ccc1C#N)CC2` [CBK267464], the viability at 28.5 h, 10 µM was 69.8%.

For the compound `COc1ccc(NC(=O)CN2CCN(S(=O)(=O)N(C)C)CC2)cc1` [CBK267465], the viability at 28.5 h, 10 µM turned out to be 93.3%.

On to `O=S(=O)(N1CCNCC1)N1CCOCC1` [CBK267467], for which the viability at 28.5 h, 10 µM came out at 88.5%.

Regarding `OC(COc1cccc(Oc2ccccc2)c1)CN1CCN(c2ccccc2F)CC1` (stereo not shown) [CBK267468], the viability at 28.5 h, 10 µM came to 95.5%.

The values above are taken from article PMC12040169 (PLOS Biology, 2025).
